Like-named read-outs stand apart in the source and are kept apart here.
Biological target: recombinantly expressed human PARP-1 enzyme (Homo sapiens, UniProt P09874)
Assay: PARP enzyme assay, Method B (tritium-labeled NAD incorporation)
Assay type: biochemical
Description: Method B: PARP Enzyme Assay:
The IC50 is determined in this method by incubating the substances to be tested with the DNA-activated, recombinantly expressed and purified PARP-1 enzyme. Specifically, various concentrations of the test substance are incubated in 50 μL of reaction solution, which contains 50 mM Tris, 5 mM MgCl2, 1 mM DTT, 200 μM NAD, 0.1 m Ci/mL tritium-labeled NAD, 0.1 mg/mL DNA, 0.1 mg/mL histones, 2 μg/mL recombinantly expressed human PARP-1 enzyme, pH=8.0, at room temperature for 1 hour. The reaction is stopped by adding 150 μL of 20% trichloroacetic acid, and the radiolabeled protein constituents are precipitated. After incubation on ice for 10 minutes, the labeled, insoluble constituents are separated off through a glass fiber filter and, after washing with 20% trichloroacetic acid three times, the radioactivity incorporated by the PARP-1 enzyme is measured by radioluminescence. Consideration of the incorporation rates determined in this way as a function of the concentration of the test substance results in IC50 as the concentration of the test substance which reduces the incorporation rate to half the maximum value attainable (incubation without inhibitor).
The IC50 (fifty percent inhibitory concentration of the test substance in a solution—expressed at micromolar (μM) concentration) measured in accordance with these procedures for the compounds of this invention are summarized in Table 1.

[1] = Method B, 200 μM NAD, room temperature 1 hour, pH 8.0, read-out: IC50 (μM)/Method B

recombinantly expressed human PARP-1 enzyme, sequence (P09874 whole entry): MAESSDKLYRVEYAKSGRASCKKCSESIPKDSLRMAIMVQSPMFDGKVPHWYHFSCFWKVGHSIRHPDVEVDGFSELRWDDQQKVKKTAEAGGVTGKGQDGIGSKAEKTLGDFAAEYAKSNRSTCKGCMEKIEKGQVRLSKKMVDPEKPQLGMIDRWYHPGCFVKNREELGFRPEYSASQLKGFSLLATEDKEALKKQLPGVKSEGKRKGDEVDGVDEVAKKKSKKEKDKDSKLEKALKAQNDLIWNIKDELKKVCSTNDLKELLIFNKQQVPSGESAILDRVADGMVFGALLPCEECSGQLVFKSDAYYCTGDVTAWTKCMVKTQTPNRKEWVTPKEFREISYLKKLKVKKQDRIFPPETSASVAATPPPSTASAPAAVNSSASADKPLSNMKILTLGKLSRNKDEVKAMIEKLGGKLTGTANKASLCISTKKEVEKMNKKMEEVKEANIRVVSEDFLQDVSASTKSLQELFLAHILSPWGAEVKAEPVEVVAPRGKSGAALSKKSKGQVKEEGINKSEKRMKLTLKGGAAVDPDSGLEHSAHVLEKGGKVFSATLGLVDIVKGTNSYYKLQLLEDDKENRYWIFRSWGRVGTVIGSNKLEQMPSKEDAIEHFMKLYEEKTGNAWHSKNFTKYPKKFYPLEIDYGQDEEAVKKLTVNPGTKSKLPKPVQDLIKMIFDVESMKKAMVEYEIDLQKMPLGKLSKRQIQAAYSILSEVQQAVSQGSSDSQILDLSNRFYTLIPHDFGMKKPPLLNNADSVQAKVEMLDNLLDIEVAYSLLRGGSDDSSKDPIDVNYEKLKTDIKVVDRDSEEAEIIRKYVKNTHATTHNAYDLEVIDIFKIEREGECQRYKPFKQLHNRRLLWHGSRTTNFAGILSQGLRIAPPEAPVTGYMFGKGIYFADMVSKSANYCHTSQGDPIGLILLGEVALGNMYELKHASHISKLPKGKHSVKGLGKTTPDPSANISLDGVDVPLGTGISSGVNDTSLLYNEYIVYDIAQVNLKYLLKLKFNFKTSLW

Row | SMILES | IC50 [1] [µM] | IC50 [µM]
1 | CCc1cc(-c2cc(C(=O)NC3CCCC3)ccn2)c(C)[nH]c1=O [Example 216, 5′-Ethyl-2′-methyl-6′-oxo-1′,6′-dihydro-[2,3′]bipyridinyl-4-carboxylic acid cyclopentylamide] | 1.5 | 
2 | CCc1cc(-c2cc(C(=O)NCCN3CCOCC3)ccn2)c(C)[nH]c1=O [Example 217, 5′-Ethyl-2′-methyl-6′-oxo-1′,6′-dihydro-[2,3′]bipyridinyl-4-carboxylic acid (2-morpholin-4-yl-ethyl)-amide] | 2.87 | 
3 | CCc1cc(-c2cc(C(=O)NCCc3ccncc3)ccn2)c(C)[nH]c1=O [Example 218, 5′-Ethyl-2′-methyl-6′-oxo-1′,6′-dihydro-[2,3′]bipyridinyl-4-carboxylic acid (2-pyridin-4-yl-ethyl)-amide] | 0.58 | 
4 | CCc1cc(-c2cncc(C(=O)NC3CCCC3)c2)c(C)[nH]c1=O [Example 219, 5′-Ethyl-2′-methyl-6′-oxo-1′,6′-dihydro-[3,3′]bipyridinyl-5-carboxylic acid cyclopentylamide] | 1.53 | 
5 | CCc1cc(-c2cncc(C(=O)NCc3ccccc3)c2)c(C)[nH]c1=O [Example 220, 5′-Ethyl-2′-methyl-6′-oxo-1′,6′-dihydro-[3,3′]bipyridinyl-5-carboxylic acid benzylamide] | 1.27 | 
6 | CCc1cc(-c2cncc(C(=O)NCc3ccccn3)c2)c(C)[nH]c1=O [Example 221, 5′-Ethyl-2′-methyl-6′-oxo-1′,6′-dihydro-[3,3′]bipyridinyl-5-carboxylic acid (pyridin-2-ylmethyl)-amide] | 2.04 | 
7 | CCc1cc(-c2cncc(C(=O)NCc3cccnc3)c2)c(C)[nH]c1=O [Example 222, 5′-Ethyl-2′-methyl-6′-oxo-1′,6′-dihydro-[3,3′]bipyridinyl-5-carboxylic acid (pyridin-3-ylmethyl)-amide] | 0.75 | 
8 | CCCCNC(=O)c1cncc(-c2cc(CC)c(=O)[nH]c2C)c1 [Example 223, 5′-Ethyl-2′-methyl-6′-oxo-1′,6′-dihydro-[3,3′]bipyridinyl-5-carboxylic acid butylamide] | 0.92 | 
9 | CCc1cc(-c2cncc(C(=O)NC(CC)c3ccc(C)nc3)c2)c(C)[nH]c1=O (stereo not drawn) [Example 224, 5′-Ethyl-2′-methyl-6′-oxo-1′,6′-dihydro-[3,3′]bipyridinyl-5-carboxylic acid [1-(6-methyl-pyridin-3-yl)-propyl]-amide] | 5.9 | 
10 | CCc1cc(-c2cncc(C(=O)NCC(N)=O)c2)c(C)[nH]c1=O [Example 225, 5′-Ethyl-2′-methyl-6′-oxo-1′,6′-dihydro-[3,3′]bipyridinyl-5-carboxylic acid carbamoylmethyl-amide] | 5.5 | 
11 | CCc1cc(-c2cncc(C(=O)N3CCCC3)c2)c(C)[nH]c1=O [Example 226, 5-Ethyl-2-methyl-5′-(pyrrolidine-1-carbonyl)-1H-[3,3′]bipyridinyl-6-one] | 0.95 | 
12 | CCc1cc(-c2cncc(C(=O)N(CC)CC)c2)c(C)[nH]c1=O [Example 227, 5′-Ethyl-2′-methyl-6′-oxo-1′,6′-dihydro-[3,3′]bipyridinyl-5-carboxylic acid diethylamide] | 1.98 | 
13 | CCc1cc(-c2cncc(C(=O)NC(c3cccnc3)C3CC3)c2)c(C)[nH]c1=O (stereo not drawn) [Example 228, 5′-Ethyl-2′-methyl-6′-oxo-1′,6′-dihydro-[3,3′]bipyridinyl-5-carboxylic acid (cyclopropyl-pyridin-3-yl-methyl)-amide] | 10.7 | 
14 | CCc1cc(-c2cncc(C(=O)NC[C@H](C)O)c2)c(C)[nH]c1=O [Example 229, 5′-Ethyl-2′-methyl-6′-oxo-1′,6′-dihydro-[3,3′]bipyridinyl-5-carboxylic acid (2-hydroxy-propyl)-amide] | 4.7 | 
15 | CCc1cc(-c2cncc(C(=O)NCCc3ccc([N+](=O)[O-])cc3)c2)c(C)[nH]c1=O [Example 230, 5′-Ethyl-2′-methyl-6′-oxo-1′,6′-dihydro-[3,3′]bipyridinyl-5-carboxylic acid [2-(4-nitro-phenyl)-ethyl]-amide] | 0.13 | 
16 | CCc1cc(-c2cncc(C(=O)N3CC(O)CC3C(=O)OC)c2)c(C)[nH]c1=O (stereo not drawn) [Example 231, 1-(5′-Ethyl-2′-methyl-6′-oxo-1′,6′-dihydro-[3,3′]bipyridinyl-5-carbonyl)-4-hydroxy-pyrrolidine-2-carboxylic acid methyl ester] | 14.8 | 
17 | CCc1cc(-c2cncc(C(=O)NCCc3ccccc3O)c2)c(C)[nH]c1=O [Example 232, 5′-Ethyl-2′-methyl-6′-oxo-1′,6′-dihydro-[3,3′]bipyridinyl-5-carboxylic acid [2-(2-hydroxy-phenyl)-ethyl]-amide] | 0.82 | 

Row | SMILES | IC50 [1] [µM] | IC50 [µM]
18 | CCc1cc(-c2cncc(C(=O)N(C)CC(N)=O)c2)c(C)[nH]c1=O [Example 233, 5′-Ethyl-2′-methyl-6′-oxo-1′,6′-dihydro-[3,3′]bipyridinyl-5-carboxylic acid carbamoylmethyl-methyl-amide] | 1.65 | 
19 | CCc1cc(-c2cncc(C(=O)N3CCC(=O)CC3)c2)c(C)[nH]c1=O [Example 234, 5-Ethyl-2-methyl-5′-(4-oxo-piperidine-1-carbonyl)-1H-[3,3′]bipyridinyl-6-one] |  | 2.46
20 | CCc1cc(-c2cncc(C(=O)N(CC)Cc3ccncc3)c2)c(C)[nH]c1=O [Example 235, 5′-Ethyl-2′-methyl-6′-oxo-1′,6′-dihydro-[3,3′]bipyridinyl-5-carboxylic acid ethyl-pyridin-4-ylmethyl-amide] | 1.86 | 
21 | CCc1cc(-c2cncc(C(=O)NCCc3ccccc3)c2)c(C)[nH]c1=O [Example 236, 5′-Ethyl-2′-methyl-6′-oxo-1′,6′-dihydro-[3,3′]bipyridinyl-5-carboxylic acid phenethyl-amide] | 0.44 | 
22 | CCc1cc(-c2cncc(C(=O)NCCc3ccc(S(N)(=O)=O)cc3)c2)c(C)[nH]c1=O [Example 237, 5′-Ethyl-2′-methyl-6′-oxo-1′,6′-dihydro-[3,3′]bipyridinyl-5-carboxylic acid [2-(4-sulfamoyl-phenyl)-ethyl]-amide] | 1.34 | 
23 | CCc1cc(-c2cncc(C(=O)NCCc3ccncc3)c2)c(C)[nH]c1=O [Example 238, 5′-Ethyl-2′-methyl-6′-oxo-1′,6′-dihydro-[3,3′]bipyridinyl-5-carboxylic acid (2-pyridin-4-yl-ethyl)-amide] | 0.35 | 
24 | CCc1cc(-c2cncc(C(=O)NCCc3ccc(OC)cc3)c2)c(C)[nH]c1=O [Example 239, 5′-Ethyl-2′-methyl-6′-oxo-1′,6′-dihydro-[3,3′]bipyridinyl-5-carboxylic acid [2-(4-methoxy-phenyl)-ethyl]-amide] | 0.94 | 
25 | CCc1cc(-c2cncc(C(=O)NCCc3cccc(OC)c3)c2)c(C)[nH]c1=O [Example 240, 5′-Ethyl-2′-methyl-6′-oxo-1′,6′-dihydro-[3,3′]bipyridinyl-5-carboxylic acid [2-(3-methoxy-phenyl)-ethyl]-amide] | 3.88 | 
26 | CCc1cc(-c2cncc(C(=O)NCCN3CCOCC3)c2)c(C)[nH]c1=O [Example 241, 5′-Ethyl-2′-methyl-6′-oxo-1′,6′-dihydro-[3,3′]bipyridinyl-5-carboxylic acid (2-morpholin-4-yl-ethyl)-amide] | 1.25 | 
27 | CCc1cc(-c2cncc(C(=O)NCCC3CCOCC3)c2)c(C)[nH]c1=O [Example 242, 5′-Ethyl-2′-methyl-6′-oxo-1′,6′-dihydro-[3,3′]bipyridinyl-5-carboxylic acid [2-(tetrahydro-pyran-4-yl)-ethyl]-amide] | 1.79 | 
28 | CCc1cc(-c2cncc(C(=O)NCCc3ccc(C(=O)O)cc3)c2)c(C)[nH]c1=O [Example 243, 4-{2-[(5′-Ethyl-2′-methyl-6′-oxo-1′,6′-dihydro-[3,3′]bipyridinyl-5-carbonyl)-amino]-ethyl}-benzoic acid] | 2.29 | 
29 | CCc1cc(-c2cncc(C(=O)NCC(=O)c3ccccc3)c2)c(C)[nH]c1=O [Example 244, 5′-Ethyl-2′-methyl-6′-oxo-1′,6′-dihydro-[3,3′]bipyridinyl-5-carboxylic acid (2-oxo-2-phenyl-ethyl)-amide] | 0.32 | 
30 | CCc1cc(-c2cncc(C(=O)NCCc3nc4ccccc4[nH]3)c2)c(C)[nH]c1=O [Example 245, 5′-Ethyl-2′-methyl-6′-oxo-1′,6′-dihydro-[3,3′]bipyridinyl-5-carboxylic acid [2-(1H-benzoimidazol-2-yl)-ethyl]-amide] | 1.9 | 
31 | CCc1cc(-c2cncc(C(=O)Nc3ccc(C(C)=O)cc3)c2)c(C)[nH]c1=O [Example 246, 5′-Ethyl-2′-methyl-6′-oxo-1′,6′-dihydro-[3,3′]bipyridinyl-5-carboxylic acid (4-acetyl-phenyl)-amide] | 0.64 | 
32 | CCc1cc(-c2cncc(C(=O)Nc3cccc(OC)c3)c2)c(C)[nH]c1=O [Example 248, 5′-Ethyl-2′-methyl-6′-oxo-1′,6′-dihydro-[3,3′]bipyridinyl-5-carboxylic acid (3-methoxy-phenyl)-amide] | 0.85 | 
33 | CCc1cc(-c2cncc(C(=O)NCCn3c([N+](=O)[O-])cnc3C)c2)c(C)[nH]c1=O [Example 249, 5′-Ethyl-2′-methyl-6′-oxo-1′,6′-dihydro-[3,3′]bipyridinyl-5-carboxylic acid [2-(2-methyl-5-nitro-imidazol-1-yl)-ethyl]-amide] | 5 | 
